One data set deals with hERG potassium channel (Homo sapiens, UniProt Q12809). Kind of data set: Whole cell patch clamp, HEK 293 T-REx HERG cells. The following applies: 10 μM. (In general: In patch-clamp work, channel activity is measured electrically.)
In another data set the target is T1, human Kv4.3 (Homo sapiens, UniProt Q9UK17).
T1 construct: expressed in transfected cells; host or cells: transgenic C. elegans strain UG1755 (plasmid pGV8 integrated; expression in the pharynx)
T1 sequence (Q9UK17 1-655): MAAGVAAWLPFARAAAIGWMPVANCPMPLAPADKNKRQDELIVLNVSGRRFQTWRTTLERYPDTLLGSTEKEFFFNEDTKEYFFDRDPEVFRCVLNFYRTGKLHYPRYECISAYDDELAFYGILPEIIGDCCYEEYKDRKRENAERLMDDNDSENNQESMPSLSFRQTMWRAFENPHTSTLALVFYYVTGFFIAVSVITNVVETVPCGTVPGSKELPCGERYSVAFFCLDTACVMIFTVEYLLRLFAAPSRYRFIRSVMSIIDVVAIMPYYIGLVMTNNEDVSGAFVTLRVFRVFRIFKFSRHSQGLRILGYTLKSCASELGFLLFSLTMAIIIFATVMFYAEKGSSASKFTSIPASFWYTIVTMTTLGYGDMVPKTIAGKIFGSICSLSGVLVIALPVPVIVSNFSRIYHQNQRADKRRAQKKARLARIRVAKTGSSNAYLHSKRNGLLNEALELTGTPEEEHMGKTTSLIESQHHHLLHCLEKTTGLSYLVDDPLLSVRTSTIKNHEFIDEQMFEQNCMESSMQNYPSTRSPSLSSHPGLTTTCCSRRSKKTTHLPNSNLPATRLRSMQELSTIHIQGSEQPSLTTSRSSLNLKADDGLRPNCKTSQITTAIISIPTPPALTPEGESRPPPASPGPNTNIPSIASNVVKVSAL
Kind of data set: C. elegans based high-throughput screen for Kv4.3 modulators (pharynx pumping, Calcein AM uptake), strain UG1755. It counts as in vivo. The following applies: for Ratio N2/Kv4.3: EC50 on N2 divided by EC50 on the Kv4.3 expressing strain, cut-off 1.8; for EC50: transgenic strain expressing human Kv4.3, read-out: EC50 (μM) Kv4.3 worm. The text has this:
A C. elegans based high-throughput screen for Kv4.3 modulators has been used to establish an in vivo SAR (structure-activity relationships: the effect of chemical structure on biological activity) on Kv4.3 for the compounds according to the present invention.
This assay has employed a stable transgenic C. elegans strain that functionally expressed human Kv4.3 in the pharynx and a visible selection GFP maker in body-wall muscle.
The method to describe the construction of a transgenic C. elegans strain expressing human Kv4.3 has been described in WO 03/097682. Briefly, the actual used strain UG1755 has been generated by microinjection into the gonad of a wild-type strain N2 with a mix of 5 ng/μl plasmid pGV8 (human Kv4.3), 20 ng/μl pDW2821 (GFP-marker) and 40 ng/μl genomic C. elegans DNA. Transgenic animals have been isolated and submitted to integration of the extra-chromosomal array into the genome of C. elegans. A line with 50% transmission of the functional expressed human Kv4.3 has been mutagenized with gamma irradiation using a Cobalt source. About 12000 F2 animals have been singled out and their progeny has been screened for the 100% transmission of the GFP marker. Lines with 100% transmission of GFP have been considered as potentially integrated. These lines have been further tested and out-crossed with N2 strain two-times. All lines obtained have been tested for viability, GFP and human Kv4.3 expression. At the end of a selection process, UG1755 was identified as most suitable C. elegans strain amenable to high throughput screening (HTS). This stable strain has expressed human Kv4.3 as confirmed by electropharyngeograms (EPG) analysis. The method has been described in WO 03/097682. Briefly, dissected pharynxes of UG1755 C. elegans animals have been prepared and Electropharyngeograms (EPGs) have been recorded using an Axopatch-1D amplifier (Axon instruments). Pharynxes have been equilibrated for about 2 minutes in the bath solution (Dent's saline with 0.5% DMSO) until stable EPG recordings have been seen. Compound solution (DMSO or 100 μM Flecamide) has been added to the bath solution. The number of ultra short EPGs (10-20 ms) and normal EPGs (100-200 ms) has been analyzed and given as ratio in percentage. […] In addition standard qRT-PCR confirmed the presence of the human Kv4.3 transgene in UG1755 as well as human Kv4.3 protein has been detected with the human Kv4.3 antibody P 0358 in the pharynx of UG1755 animals. […]
Introducing the human Kv4.3 channel into the C. elegans pharynx influences the C. elegans action potential in a characteristic fashion. […] The pumping end-point can be technically translated into a high-throughput read-out by the use of a pro-fluorescent dye. […]

Data set [1] concerns C. elegans wild-type strain N2. Kind of data set: Same pumping assay format using C. elegans wild-type strain N2. It counts as in vivo. The following applies: read-out: EC50 (μM) N2 worm. The text has this: The screening of the compounds according to the present invention has been performed in the C. elegans based high-throughput screen for Kv4.3 modulators described above. The method for testing the activity on human Kv4.3 of the compounds according to the invention with C. elegans strains expressing human Kv4.3 for their activity is the same as the method described in WO 03/097682. The method for testing the compounds on wild-type C. elegans strains not expressing human Kv4.3 is the same as the method described in WO 00/63427. Briefly, UG1755 animals have been grown in large numbers and staged young adults (no or only few eggs inside the uterus) have been harvested on the day of screening. Approximately 125 animals in 80 μl buffer have been dispensed per well of a “U” shaped 96-well compound plate. The compound plate contained already compound material at a final concentration of 30 μM in 0.3% DMSO. […] After another four hours of incubation at 20° C., the drinking of C. elegans animals (or the “reaction” as measured by the uptake of CAM) has been stopped by adding 10 μl of a 60 μM ivermectin solution. The fluorescence intensity (counts per second) has been measured 40 minutes after adding ivermectin with the Wallac plate reader at a wavelength of 535 nm (after excitation at 485 nm). […]

Where two headings read alike, the source gives them in different places. Bounds are passed on as bounds.

hERG potassium channel, sequence (Q12809 whole entry): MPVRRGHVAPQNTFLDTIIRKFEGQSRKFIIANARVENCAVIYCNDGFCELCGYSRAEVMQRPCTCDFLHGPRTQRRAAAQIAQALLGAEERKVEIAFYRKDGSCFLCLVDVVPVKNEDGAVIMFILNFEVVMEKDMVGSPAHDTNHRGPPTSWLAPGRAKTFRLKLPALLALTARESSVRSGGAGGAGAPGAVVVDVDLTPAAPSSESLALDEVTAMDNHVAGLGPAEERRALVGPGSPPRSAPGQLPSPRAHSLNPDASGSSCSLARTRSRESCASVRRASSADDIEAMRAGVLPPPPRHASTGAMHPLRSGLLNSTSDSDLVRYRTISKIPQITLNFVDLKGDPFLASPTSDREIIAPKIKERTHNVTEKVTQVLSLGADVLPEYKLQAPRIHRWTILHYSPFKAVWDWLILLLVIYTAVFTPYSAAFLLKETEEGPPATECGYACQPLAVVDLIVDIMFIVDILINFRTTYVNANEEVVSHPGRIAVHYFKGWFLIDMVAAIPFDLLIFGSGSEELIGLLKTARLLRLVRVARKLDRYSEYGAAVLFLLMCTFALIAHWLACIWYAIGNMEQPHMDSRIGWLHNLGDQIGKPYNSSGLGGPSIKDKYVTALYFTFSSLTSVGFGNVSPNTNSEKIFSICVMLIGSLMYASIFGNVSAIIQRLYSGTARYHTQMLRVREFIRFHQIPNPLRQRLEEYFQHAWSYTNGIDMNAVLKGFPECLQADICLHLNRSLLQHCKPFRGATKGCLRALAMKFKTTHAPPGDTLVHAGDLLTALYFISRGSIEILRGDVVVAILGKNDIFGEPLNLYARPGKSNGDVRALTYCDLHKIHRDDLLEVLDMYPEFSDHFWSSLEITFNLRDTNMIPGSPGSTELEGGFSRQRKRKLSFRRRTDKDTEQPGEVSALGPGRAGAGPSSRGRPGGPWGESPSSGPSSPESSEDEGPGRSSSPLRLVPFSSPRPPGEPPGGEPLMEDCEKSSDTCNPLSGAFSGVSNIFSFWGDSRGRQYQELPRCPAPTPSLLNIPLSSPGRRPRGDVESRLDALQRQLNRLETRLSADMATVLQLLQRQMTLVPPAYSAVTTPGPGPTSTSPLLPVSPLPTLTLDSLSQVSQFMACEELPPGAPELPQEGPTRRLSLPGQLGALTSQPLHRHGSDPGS
From the text for hERG potassium channel: For this experiment HEK 293 T-REx HERG cells (#23) were used. This cell line made by IonGate is characterized by the inducible expression of the hERG gene. The T-REx™ System (Invitrogen, Karlsruhe, Germany) is a tetracycline-regulated mammalian expression system that uses regulatory elements from the E. coli Tn10-encoded tetracycline (Tet) resistance operon. In the absence of Tet the expression is repressed. Tetracycline regulation in the T-REx™ System is based on the binding of tetracycline to the Tet repressor and derepression of the promoter controlling expression of the hERG gene. Addition of Tet to the cell culture media results in expression of the hERG potassium channel.
To construct the HEK 293 T-REx HERG cell line, the hERG gene was ligated into the inducible expression vector pcDNA4/TO (→pc4TO-HERG) and transfected into HEK 293 T-REx cells (this cell line stably expresses the Tet repressor and was purchased at Invitrogen). Stable cell clones were isolated after selection with Blasticidin (5 μg/ml) and Zeocin™ (300 μg/ml). The clones were electrophysiological characterized after induction with 1 μg/ml Tet.
Experiments were performed using the patch clamp set-up. Technical equipment needed for manipulation of the cells was placed on a vibration-isolated table and shielded with a Faraday cage to minimize electrical noise. The amplifier and control system were placed in a rack outside the Faraday cage. The system consisted of an EPC9 or EPC10 patch clamp amplifier (HEKA, Lambrecht, Germany), and the perfusion system DADVC8 (ALA Scientific, New York, USA) controlled by the Pulse software package (HEKA, Lambrecht, Germany) installed on a personal computer.
The cells used for this experiment were kept in continuous culture under standard conditions (37° C., air supplemented with 5% CO2). The HEK 293 T-REx HERG cells were kept in minimal essential medium (MEM) supplemented with 100 U/ml Penicillin, 100 μg/ml Streptomycin, 10% fetal calf serum (FCS), 1% non-essential amino acids (NEAA), 2.5 μg/ml amphotericin, 300 μg/ml Zeocin™ and 5 μg/ml Blasticidin. Cells were passed every 3-4 days after detachment using a Trypsin solution. The quality of the cultured cells was guaranteed by vitality and contamination tests.
At least 18 hours prior to electrophysiological experiments the cells were detached by application of iced PBS (phosphate buffered saline) or Trypsin and replated on cover slips. 1 μg/ml Tet was added to the cells to induce hERG expression.
Activity of the cardiac hERG channel was investigated using the patch clamp technique in its whole cell mode. This means that the current needed for clamping the whole cell expressing the K^+-channel protein to a specific potential was measured. The pipettes used for patch clamping were made of borosilicate glass. Measurements were performed at room temperature (20-25° C.). In each experiment (i.e. each cell) only one concentration of the compound was investigated—no cumulative dosages were performed. Each cell acted as its own control. The effect of the compounds on hERG mediated currents was investigated at one concentration (10 μM) with two replicates each (c=1, n=2).
Between voltage pulses the cell was clamped to a holding potential of −80 mV (inside).
(b) and (c) were used to characterize the properties of the hERG channel and to check the quality of the individual patch clamp experiment (voltage control). Each test protocol consisted of 6 segments.

Broadly, the melting point is the temperature of the solid-liquid transition. As to `O=C(NCc1ccc(OC(F)(F)F)cc1)c1cc2cc(Cl)ccc2o1` [Compound 89, 5-chloro-benzofuran-2-carboxylic acid 4-trifluoromethoxy-benzylamide], the melting point lay in the range of 101.3 to 106.3 °C. In addition, the “hERG (%)” value on hERG potassium channel was 39%.

One may read the EC50 as the concentration needed to bring the measured effect to its halfway point. In the case of “5-chloro-benzofuran-2- carboxylic acid [3- (10,11-dihydro- dibenzo[a,d]cyclohepten- 5-ylidene)-propyl]- methyl-amide [Compound 5]”, on human Kv4.3, the “Ratio N2/Kv4.3” value is on record as 5.7 and the EC50 is 4.2 µM. In data set [1], the EC50 turned out to be 24 µM.

With `C[C@@H](NC(=O)c1cc2cc(Cl)ccc2o1)c1ccc([N+](=O)[O-])cc1` [Compound 1, 5-chloro-benzofuran-2-carboxylic acid [(R)-1-(4-nitro-phenyl)-ethyl]-amide], the “Ratio N2/Kv4.3” value at human Kv4.3 is over 4.9. The EC50 on human Kv4.3 was 6.1 µM; in data set [1] (Caenorhabditis elegans), over 30 µM.

As to `Cc1c(C(=O)NCc2ccc(F)c(C(F)(F)F)c2)sc2ccc(Cl)cc12` [Compound 107, 5-chloro-3-methyl-benzo[b]thiophene-2-carboxylic acid 4-fluoro-3-trifluoromethyl-benzylamide], the melting point was 134 to 136.5 °C. Further, the “hERG (%)” value at hERG potassium channel turned out to be 38%.

(Values after patent US20080039442A1, “Compounds With Kv4 Ion Channel Activity” (Devgen NV, priority 2004, published 2008).)
